Results on three compounds are retold here after patent US6989140B2, “Methods for cancer imaging” (Threshold Pharmaceuticals, Inc., priority 2001, dated 2006).

Series [1] in a line: Solubility of the isolated conjugate in methanol and water. It is filed as physicochemical. To be noted: isolated product after preparative TLC. As for the experimental part: More particularly, 2.2 mg (4 micromoles) of 6-((4,4-difluoro-5,7-dimethyl-4-bora-3a,4a-diaza-s-indacene-3-propionyl)amino)hexanoic acid, succinimidyl ester was dissolved in 0.3 ml of DMF followed by the addition of 6 mg (28 micromoles) of glucosamine HCL dissolved in 0.3 ml of water and 3.9 microliters (28 micromoles) of triethyl amine. The reaction was stirred for 24 hrs at room temperature, evaporated under reduced pressure, and dissolved in a minimum of methanol. This solution was spread on a preparative TLC plate (silica), dried, and developed with 2.5% water in acetonitrile. The plate was then dried and the product visualized with a UV light.
About 4 mg (4.8 micromoles) of Texas Red®-X, succinimidyl ester *single isomer* (816.94 MW, Molecular Probes, T-20175) were dissolved in 1.2 ml of methanol and combined with 4 mg (18 micromoles) of glucosamine HCl (Sigma) in 600 microliters of water. About 2.5 microliters (18 micromoles) of triethylamine were then added. The reaction was stirred overnight at 20° C. and then evaporated under reduced pressure. The gum was dissolved in methanol and spread on a preparative TLC plate (silica), dried, and developed with 10% water in acetonitrile. The plate was then dried and the product visualized with a UV light. […] B. Synthesis of 5-(and 6) Carboxynaphtofluorescein Glucosamine Conjugate [drawing 12]
About 8.3 mg (14 micromoles) of 5-(and-6)-carboxynaphthofluorescein, succinimidyl ester *mixed isomers* (MW 573.51, Molecular Probes, C-653) were dissolved in 2 ml of DMF, and 10 mg (46 micromoles) of glucosamine HCl (Sigma) in 1 ml of water was added. About 5.8 microliters (46 micromoles) of triethylamine were then added. The reaction was stirred overnight at 20° C. and then evaporated under reduced pressure. The gum was dissolved in 25% water in methanol and spread on a preparative TLC plate (silica), dried, and developed with 10% water in acetonitrile. The plate was then dried and the product visualized with a UV light. […] C. Synthesis of Glucosamine N-Methylanthranilamide Conjugate [drawing 13]

The next series deals with Raji lymphoma cells. Nature of the series: 2-NBDG uptake in Raji lymphoma cells versus peripheral blood white cells (PBMC). The following applies: Raji lymphoma cells vs PBMC; 200 uM; 40 min; 37° C.; fluorescence plate reader (FIG. 2). Format: cell-based. As to the method: Raji cells from culture one t-75 flask. Peripheral blood white cells from Stanford Blood Bank. Leukocytes were further separated by Ficoll separation (twice). These cells are referred to as PBMC (peripheral blood mononuclear cells). Phosphate-buffered saline. 2-NBDG, 0.1 M in water.
Culture medium with cells (either Raji or PBMC, 15 mL) were centrifuged for 10 min at 800×g. The pellet of cells was resuspended in PBS and centrifuged for 10 min at 800×g, and the resulting pellet was resuspended in 1.5 mL PBS. Cells were counted and adjusted to 1×10^6 per mL for both. Aliquots (100 uL) were placed into each of 2 tubes for each cell type, and the tubes were incubated at 37° C. for 15 min. The fluorescent deoxyglucose conjugate 2-NBDG was added to each tube to provide a concentration of 200 uM. At 40 min, the tubes were removed from the 37° C. bath and immediately placed on ice. The cells were washed twice with PBS and resuspended in 100 uL of PBS. A 20 uL aliquot was placed in each of 5 wells of an LJL 96-well plate, and fluorescence was counted by a LJL plate reader.

With `O=C(NC1C(O)OC(CO)C(O)C1O)c1ccc(C(=O)O)c(-c2c3ccc4cc(O)ccc4c3oc3c2ccc2cc(=O)ccc23)c1` (centres unmarked), in series [1], the solubility in methanol entry is recorded as “soluble” and the solubility in water entry is recorded as “sparingly soluble”.

On to `O=C(CCCCCNS(=O)(=O)c1ccc(C2=c3cc4c5c(c3Oc3c2cc2c6c3CCCN6CCC2)CCC[N+]=5CCC4)c(S(=O)(=O)[O-])c1)NC1C(O)OC(CO)C(O)C1O` (single isomer, unassigned) [Texas Red Glucosamine Conjugate], for which, in series [1], the solubility in methanol entry is “soluble” and the solubility in water entry is on record as “sparingly soluble”.

For the compound `O=C[C@H](Nc1ccc([N+](=O)[O-])c2nonc12)[C@@H](O)[C@H](O)[C@H](O)CO` [2-NBDG, 2-(N-(7-nitrobenz-2-oxa-1,3-diazol-4-yl)amino)-2-deoxyglucose], in the series with Raji lymphoma cells, the “uptake by a cancer cell as compared to a normal cell” value is reported as “preferred uptake”.
